Patent US7977352B2, “Triazolopyridine compounds useful for the treatment of degenerative and inflammatory diseases” (Galapagos NV, priority 2006, dated 2011)

What was measured:
[1] = system: MMP1 expression by activated synovial fibroblasts (RASFs); experiment: MMP assay: MMP1 expression by RASFs triggered with TNF-α (MMP1 ELISA); format: cell-based; settings: Fibroblast, 48 h, TNF-α trigger 10 ng/mL, semi-quantitative score, read-out: REDUCTION MMP1/TNFa
Procedure: A 384-well format ELISA for measurement of MMP1 is developed. Various primary antibodies are tested, as well as various ELISA protocols. The following protocol is developed and validated to measure MMP1 levels in SF supernatant in 384 well plates: white Lumitrac 600 384 well plates (Greiner) are coated with 2 μg/mL anti-MMP1 antibody MAB1346 (Chemicon). The antibody is diluted in buffer 40 (1.21 g Tris base (Sigma), 0.58 g NaCl (Calbiochem) and 5 mL 10% NaN3 (Sigma) in 1 L milliQ water and adjusted to pH 8.5). After overnight incubation at 4° C., plates are washed with PBS (80 g NaCl, 2 g KCl (Sigma), 11.5 g Na2HPO4.7H2O and 2 g KH2PO4 in 10 L milliQ; pH 7.4) and blocked with 100 μL/well Casein buffer (2% Casein (VWR International) in PBS). Next day, casein buffer is removed from ELISA plates and replaced by 50 μL/well EC buffer (4 g casein, 2.13 g Na2HPO4 (Sigma), 2 g bovine albumin (Sigma), 0.69 g NaH2PO4.H2O (Sigma), 0.5 g CHAPS (Roche), 23.3 g NaCl, 4 mL 0.5 M EDTA pH 8 (Invitrogen), 5 mL 10% NaN3 in 1 L milliQ and adjusted to pH 7.0). 0.25 mM DTT (Sigma) is added to the thawed sample plates. After removal of the EC buffer, 20 μL of sample is transferred to the ELISA plates. After overnight incubation at 4° C. plates are washed twice with PBS and once with PBST (PBS with 0.05% Tween-20 (Sigma)) and incubated with 35 μL/well biotinylated anti-MMP1 antibody solution (R&D). This secondary antibody is diluted in buffer C (0.82 g NaH2PO4.H2O, 4.82 g Na2HPO4, 46.6 g NaCl, 20 g bovine albumin and 4 mL 0.5M EDTA pH 8 in 2 L milliQ and adjusted to pH 7.0) at a concentration of 5 μg/mL. After 2 h of incubation at RT, plates are washed as described above and incubated with 50 μL/well streptavidin-HRP conjugate (Biosource). Streptavidin-HRP conjugate is diluted in buffer C at a concentration of 0.25 μg/mL. After 45 min, plates are washed as described above and incubated for 5 min with 50 μL/well BM Chem ELISA Substrate (Roche). Readout is performed on the Luminoscan Ascent Luminometer (Labsystems) with an integration time of 200 msec or with an Envision reader (Perkin Elmer).
SFs were acquired at passage 1 from a commercial supplier (Cell applications, Inc.). SFs are cultured in DMEM supplemented with 10% heat-inactivated FBS, 1× penicillin/streptomycin (Invitrogen) at 37° C., 10% CO2 until passage 6. Aliquots of the cells are frozen and cryopreserved in liquid nitrogen. Starting from a cryopreserved aliquot, cells are further expanded by sub-culturing cells at 1/3 ratio every week. Cells between passage 10 and 12 are routinely used in compound testing according to following protocol.
Starting from the compound master stocks (all at 10 mM concentration in 100% DMSO) a 3-fold serial dilution is made in 96-well plates in 100% DMSO. Then, plates are further diluted 45-fold in M199 medium supplemented with 1% heat-inactivated FBS to obtain a intermediate work stock.
At day 1, RASFs are seeded in 96 well plates (flat bottom, tissue culture treated, Greiner) at a density of 3000 cells/well in complete synovial growth medium (Cell Applications). Day 5, the medium is completely removed from the cells, and replaced by 81 μL of M199 medium supplemented with 1% heat-inactivated FBS followed by addition of 10 μL compound out of the intermediate work stock. After an incubation period of 90 minutes, which allows the compounds to equilibrate and enter the cells, cells are stimulated with either TNF-α or ‘complex trigger’. TNF-α trigger is added in a volume of […] to obtain final concentration of 10 ng/mL. For that, TNF-α stock (PeproTech) at 10 μg/mL was diluted to 100 ng/mL TNF-a in M199 medium supplemented with 1% FBS. ‘Complex trigger’ mix is added in a volume of 20 μL to obtain a final concentration of 12.5%. For that, ‘complex trigger’ mix, is diluted to 80% with M199 medium supplemented with 1% FBS. […]

[2] = biological target: T1, TAK1-TAB1 fusion protein (Homo sapiens, UniProt O43318); experiment: In vitro TAK1 kinase assay; format: biochemical; settings: casein substrate, [33P]-γ-ATP, 90 minutes at 30° C., semi-quantitative score, read-out: POTENCY TAK1 (MAP3K7)
T1 construct: purchased Upstate 14-600
T1 sequence (O43318 with tags, fused parts or gaps limits assumed): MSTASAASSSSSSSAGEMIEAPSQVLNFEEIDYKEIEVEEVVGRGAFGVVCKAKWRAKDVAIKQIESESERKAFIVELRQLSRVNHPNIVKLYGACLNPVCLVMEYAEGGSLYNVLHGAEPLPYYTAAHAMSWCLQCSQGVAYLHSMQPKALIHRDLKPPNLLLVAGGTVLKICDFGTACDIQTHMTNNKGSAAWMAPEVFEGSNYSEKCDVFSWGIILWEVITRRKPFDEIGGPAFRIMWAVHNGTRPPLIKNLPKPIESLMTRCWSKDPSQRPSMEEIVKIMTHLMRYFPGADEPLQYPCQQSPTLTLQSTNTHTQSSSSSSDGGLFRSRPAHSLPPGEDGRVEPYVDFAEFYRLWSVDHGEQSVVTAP
Procedure: For assessing TAK1 inhibition, active TAK1-TAB1 fusion protein was used from Upstate (Cat. No, 14-600). Kinase reactions are set up in 96-well polypropylene plates in 25 μL containing 0.5 mU TAK1-TAB1 fusion protein, 5mM ATP, 0.01 μCi/μL [^33P]-γ-ATP, 0.1 mg/mL casein substrate in 1× reaction buffer containing 10 mM MOPS pH 7.0, 1 mM EDTA.
Starting from the compound master stocks (all at 10 mM concentration in 100% DMSO) a 3-fold serial dilution is made in 96-well plates in 100% DMSO. Plates are further diluted […] in H2O containing 3.5% DMSO, to obtain an intermediate work stock with compounds at 5× the final assay concentration in 5% DMSO.
5 μL of the intermediate stock is transferred into V-bottom 96 well polypropylene plates and 11 μL of Enzyme mix is added. Enzyme mix is made by combining 5 μL 5× reaction buffer ([…] pH 7.0, 1 mM EDTA), 5 μL casein (Sigma) diluted in H20 to 0.5 mg/mL and 1 μL of TAK1-TAB1 fusion protein that was prediluted to 0.5 mU/μL in 1× enzyme dilution buffer (20 mM MOPS pH 7.0, 0.1 mM EDTA, 0.01% Brij-35, 5% glycerol, 1 mM DTT, 1 mg/ml BSA).
The reactions are started by the addition of 9 μL of mixture containing ATP (20.83 uM) and [^33P]-γ-ATP (0.028 μCi/μL).
The assay is stopped 90 minutes after incubation at 30° C. by the addition of 25 μL phosphoric acid (150 mM). The label incorporated into the casein substrate is separated from labeled unincorporated ATP by filtration onto 96-well filter plates using a harvester device. After 6 washes with 75 mM phosphoric acid, the bottom of the filter plates are sealed, and incorporated label is quantified after addition of 40 μL scintillation fluid using TopCount.

SMILES	IC50 [1]	IC50 [2]
COc1ncc(-c2ccc(Nc3ccc(N4CCOCC4)cc3)c3ncnn23)c(OC)n1 [Example 54, 5-(2,4-dimethoxypyrimidin-5-yl)-N-(4-morpholin-4-ylphenyl)[1,2,4]triazolo[1,5-a]pyridin-8-amine]	> 10 µM	> 10 µM
c1nc2c(Nc3ccc(N4CCN(C5CCC5)CC4)cc3)ccc(-c3cn[nH]c3)n2n1 [Example 35, N-[4-(4-cyclobutylpiperazin-1-yl)phenyl]-5-(1H-pyrazol-4-yl)[1,2,4]triazolo[1,5-a]pyridin-8-amine]	> 10 µM	< 0.5 µM
CC(C)CCN1CCN(c2ccc(Nc3ccc(-c4cc[nH]c(=O)c4)n4ncnc34)cc2)CC1 [Example 22, 4-[8-({4-[4-(3-methylbutyl)piperazin-1-yl]phenyl}amino)[1,2,4]triazolo[1,5-a]pyridin-5-yl]pyridin-2(1H)-one]	1 to 5 µM	< 0.5 µM
CCC(CC)N1CCN(c2ccc(Nc3ccc(-c4ccc(C(N)=O)cc4)n4ncnc34)cc2)CC1 [Example 14, 4-[8-({4-[4-(1-ethylpropyl)piperazin-1-yl]phenyl}amino)[1,2,4]triazolo[1,5-a]pyridin-5-yl]benzamide]	> 10 µM	< 0.5 µM
NC(=O)c1ccc(-c2ccc(Nc3ccc(N4CCN(C5CC5)CC4)cc3)c3ncnn23)cc1 [Example 18, 4-(8-{[4-(4-cyclopropylpiperazin-1-yl)phenyl]amino}[1,2,4]triazolo[1,5-a]pyridin-5-yl)benzamide]	1 to 5 µM	1 to 5 µM
NC(=O)c1ccc(-c2ccc(Nc3ccc(N4CCN(C5CCC5)CC4)cc3)c3ncnn23)cc1 [Example 16, 4-(8-{[4-(4-cyclobutylpiperazin-1-yl)phenyl]amino}[1,2,4]triazolo[1,5-a]pyridin-5-yl)benzamide]	5 to 10 µM	< 0.5 µM
NC(=O)c1cccc(-c2ccc(Nc3ccc(N4CCOCC4)cc3)c3ncnn23)c1 [Example 43, 3-{8-[(4-morpholin-4-ylphenyl)amino][1,2,4]triazolo[1,5-a]pyridin-5-yl}benzamide]	> 10 µM	> 10 µM
CC(C)N1CCN(c2ccc(Nc3ccc(-c4ccc(F)c(C(N)=O)c4)n4ncnc34)cc2)CC1 [Example 46, 2-fluoro-5-(8-{[4-(4-isopropylpiperazin-1-yl)phenyl]amino}[1,2,4]triazolo[1,5-a]pyridin-5-yl)benzamide]	> 10 µM	> 10 µM
CCCN1CCN(c2ccc(Nc3ccc(-c4cc[nH]c(=O)c4)n4ncnc34)cc2)CC1 [Example 20, 4-(8-{[4-(4-propylpiperazin-1-yl)phenyl]amino}[1,2,4]triazolo[1,5-a]pyridin-5-yl)pyridin-2(1H)-one]	1 to 5 µM	< 0.5 µM
COc1ncc(-c2ccc(Nc3ccc(N4CCN(C(C)C)CC4)cc3)c3ncnn23)c(OC)n1 [Example 56, 5-(2,4-dimethoxypyrimidin-5-yl)-N-[4-(4-isopropylpiperazin-1-yl)phenyl][1,2,4]triazolo[1,5-a]pyridin-8-amine]	> 10 µM	> 10 µM
COc1cc(-c2ccc(Nc3ccc(N4CCN(CCC(C)C)CC4)cc3)c3ncnn23)ccn1 [Example 29, 5-(2-methoxypyridin-4-yl)-N-{4-[4-(3-methylbutyl)piperazin-1-yl]phenyl}[1,2,4]triazolo[1,5-a]pyridin-8-amine]	1 to 5 µM	> 10 µM
CCC(CC)N1CCN(c2ccc(Nc3ccc(-c4cc[nH]c(=O)c4)n4ncnc34)cc2)CC1 [Example 21, 4-[8-({4-[4-(1-ethylpropyl)piperazin-1-yl]phenyl}amino)[1,2,4]triazolo[1,5-a]pyridin-5-yl]pyridin-2(1H)-one]	> 10 µM	< 0.5 µM
COc1cc(-c2ccc(Nc3ccc(N4CCN(C5CCC5)CC4)cc3)c3ncnn23)ccn1 [Example 31, N-[4-(4-cyclobutylpiperazin-1-yl)phenyl]-5-(2-methoxypyridin-4-yl)[1,2,4]triazolo[1,5-a]pyridin-8-amine]	5 to 10 µM	> 10 µM
CC(C)N1CCN(c2ccc(Nc3ccc(-c4cccc5[nH]ccc45)n4ncnc34)cc2)CC1 [Example 49, 5-(1H-indol-4-yl)-N-[4-(4-isopropylpiperazin-1-yl)phenyl][1,2,4]triazolo[1,5-a]pyridin-8-amine]	> 10 µM	1 to 5 µM
COc1cc(-c2ccc(Nc3ccc(N4CCN(C5CC5)CC4)cc3)c3ncnn23)ccn1 [Example 30, N-[4-(4-cyclopropylpiperazin-1-yl)phenyl]-5-(2-methoxypyridin-4-yl)[1,2,4]triazolo[1,5-a]pyridin-8-amine]	1 to 5 µM	> 10 µM
NC(=O)c1cc(-c2ccc(Nc3ccc(N4CCOCC4)cc3)c3ncnn23)ccc1F [Example 45, 2-fluoro-5-{8-[(4-morpholin-4-ylphenyl)amino][1,2,4]triazolo[1,5-a]pyridin-5-yl}benzamide]	> 10 µM	> 10 µM
